In general, IC50 refers to the concentration that gives 50% inhibition. For orientation: AUC(0-inf) means the area under the concentration-time curve extrapolated to infinity. Higher therefore signals more exposure. One may read the AUC(0-t) as the area under the concentration-time curve up to a stated or last time point. Read a low AUC(0-t) as low exposure. In general, Tmax refers to the time at which the peak concentration occurs. Usually half-life stands for how long it takes for the measured level to halve. For orientation: inhibition means the change of the read-out against control, counted positive when it falls. Low values mean little suppression, high ones strong suppression.

Structures are written as SMILES. Where “and” joins values, the source holds several entries; their conditions need not be identical. Equal values may be shown once. Where a name gives a salt, the structure may show the parent alone. Read-outs that look alike come from different tables or passages of the source.

Experimental findings from patent publication US20230310435A1, “HOST DEFENSE PROTEIN (HDP) MIMETICS FOR PROPHYLAXIS AND/OR TREATMENT OF INFLAMMATORY DISEASES OF THE GASTROINTESTINAL TRACT” (priority 2015, published 2023) are described below.

Data set [1] concerns LPS-induced IL-1β release, NR8383 cells. Description: LPS-induced IL-1β release in NR8383 rat alveolar macrophages (ELISA). Particulars: Macrophage, 8-hour brilacidin and LPS exposure, read-out: IC50, inhibition of LPS-induced IL-1β release. It is filed as cell-based. As to the method: To examine the effect of brilacidin on the pro-inflammatory cytokine IL-1β production in cells, rat alveolar macrophage (NR8383) cells were pretreated with a range of brilacidin concentrations for 45 minutes, followed by treatment with 1 μg/ml LPS from E. coli (Sigma, St. Louis, MO) for 8 hours in the presence of brilacidin. After 8 hours, supernatants were collected for IL-1β measurement by ELISA. IL-1β was measured using an immunoassay kit according to manufacturer's instructions (Thermo Scientific, Rockford, IL).
(§1) PDE4 and PDE3 inhibition results in subsequent down-regulation of pro-inflammatory cytokines/chemokines and its regulators, and experiments were conducted to confirm such down-regulation by brilacidin in ex vivo cell-based assays. In these assays, cells were exposed to brilacidin 45 minutes before an 8-hour lipopolysaccharide (LPS) stimulation in the presence of brilacidin; cytokine/enzyme concentrations were determined by ELISA using a standard immunoassay kit.
In general terms: In an ELISA, binding on a coated surface is turned into a signal by an enzyme label.

The target in data set [2] is human PDE4B2 (Homo sapiens, UniProt Q07343). Description: PDE-Glo phosphodiesterase assay, PDE4. Format: biochemical. To be noted: 8 ng PDE4B, 1 μM cAMP substrate, 15 min pre-incubation; read-out: IC50, inhibition of PDE4. How it is done:
Method for FIG. 1. […] The compounds and PDE4B (BPS Biosciences, San Diego, CA) were mixed and pre-incubated at room temperature for 15 minutes. Substrate was added and the reaction was incubated for 7 minutes at room temperature. Data are presented as luminescence units (RLU).
Method for FIG. 2. Phosphodiesterase inhibition assays of PDE4 were performed, using PMX-60056. The PDE-Glo phosphodiesterase assay (Promega, Madison, WI, USA Catalog No. V1361) was performed using 8 ng of PDE4B (BPS Biosciences, San Diego, CA). […] The compounds and PDE4B were mixed and pre-incubated at room temperature for 15 minutes. Substrate was added and the reaction was incubated for 7 minutes at room temperature. Data are presented as luminescence units (RLU).
Phosphodiesterase type 4 (PDE4) is predominant phosphodiesterase expressed in neutrophils, T cells and macrophages. PDE inhibitors show broad spectrum of anti-inflammatory effects in almost all inflammatory cells. PDE4 inhibitors, block the degradative action of PDE4 on cAMP, thereby increasing intracellular levels of cAMP levels which mediate phosphorylation of protein kinases. […] Data are presented as luminescence units (RLU).
The PDE-Glo phosphodiesterase assay was performed according to the Method described for FIG. 2, using 8 ng of PDE4B, 1 μM cAMP substrate PMX-60056. Data are presented as luminescence units (RLU). […]

Data set [3] in a line: Plasma pharmacokinetics after IV or PO administration (Study 16009-12001). It is filed as in vivo, male Balb/c mice. To be noted: male mice; for Cmax: read-out: Cmax (peak concentration). An excerpt:
Method for FIG. 11. […] The test article, PMX-30063, was corrected for salt form but no adjustment was made for purity. […] The resulting formulation was clear colorless solution (pH 7) and was stored at room temperature until administered. The formulated solution was clear and colorless until dosing was completed.
A total of 60 male Balb/c mice, approximately 4-7 weeks of age at receipt with body weight of 18.0 g to 21.9 g were used in this study.
Three mice in each group were used for blood at each time point at post-dose at 5 minutes, 15 minutes, 30 minutes, 1, 2, 4, 8, and 24 hours for Groups 1-2. Blood samples (at least 300 μL/sample) were collected via cardiac puncture after euthanasia by carbon dioxide inhalation at appropriate time points. Samples were placed in tubes containing K2-EDTA, and then centrifuged at approximately 8,000 rpm for 6 minutes at 4° C. and the resulting plasma were separated and stored frozen at approximately −80° C.
The pharmacokinetic (PK) analysis were conducted by Medicilon Preclinical Research (Shanghai) LLC. The PK parameters were determined by the Study Director for the test article from mean concentration-time data in the test species. A non-compartmental module of WinNonlin™ Professional 5.2 was used to calculate parameters. Any BLQs (LLOQ=2.5 ng/mL for plasma and LLOQ=500 ng/g for small intestine) were replaced with a value of “0”, and the mean value and its standard deviation (SD) are calculated with these replaced values.
Plasma samples (50 μL) were transferred to centrifuge tube, then 250 μL IS solution (50 ng/mL Carvedilol) was added to it. After vortexing for 1 minute and centrifuging for 5 minutes at 15,000 rpm, 100 μL aliquots of supernatant were transferred to glass autosampler vials.

Data set [4] concerns LPS-induced TNF-α release, NR8383 cells. Nature of the data set: LPS-induced TNF-α production in NR8383 rat macrophages (ELISA). Format: cell-based. As to the method: Method for FIG. 5. TNF-alpha assays were performed using PMX-30063. […] TNF-α concentrations in the supernatants were determined by ELISA using an immunoassay kit specific for rat TNF-α (R&D Systems, Minneapolis, MN) according to manufacturer's instructions.
Method for FIG. 6. TNF-alpha assays were performed using PMX-60056. NR8383 rat macrophage cells were pretreated with PMX-60056 for 45 minutes followed by treatment with 1 μg/ml LPS from E. coli (Sigma, St. Louis, MO) for 8 hours. TNF-α concentrations in the supernatants were determined by ELISA using an immunoassay kit specific for rat TNF-α (R&D Systems, Minneapolis, MN) according to manufacturer's instructions.
The TNF-α inhibition assay was performed according to the Method described for FIG. 5. […] TNF-α concentrations in the supernatants were determined by ELISA using an immunoassay kit specific for rat TNF-α (R&D Systems).
The TNF-α inhibition assay was performed according to the Method described for FIG. 6. NR8383 rat macrophage cells (CRL-2192. ATCC) were pretreated with PMX-60056 for 45 minutes followed by treatment with 1 μg/ml LPS for 8 hours. TNF-α concentrations in the supernatants were determined by ELISA using an immunoassay kit specific for rat TNF-α (R&D Systems).
as §1

human PDE4B2, sequence (Q07343 1-564 isoform Q07343-2): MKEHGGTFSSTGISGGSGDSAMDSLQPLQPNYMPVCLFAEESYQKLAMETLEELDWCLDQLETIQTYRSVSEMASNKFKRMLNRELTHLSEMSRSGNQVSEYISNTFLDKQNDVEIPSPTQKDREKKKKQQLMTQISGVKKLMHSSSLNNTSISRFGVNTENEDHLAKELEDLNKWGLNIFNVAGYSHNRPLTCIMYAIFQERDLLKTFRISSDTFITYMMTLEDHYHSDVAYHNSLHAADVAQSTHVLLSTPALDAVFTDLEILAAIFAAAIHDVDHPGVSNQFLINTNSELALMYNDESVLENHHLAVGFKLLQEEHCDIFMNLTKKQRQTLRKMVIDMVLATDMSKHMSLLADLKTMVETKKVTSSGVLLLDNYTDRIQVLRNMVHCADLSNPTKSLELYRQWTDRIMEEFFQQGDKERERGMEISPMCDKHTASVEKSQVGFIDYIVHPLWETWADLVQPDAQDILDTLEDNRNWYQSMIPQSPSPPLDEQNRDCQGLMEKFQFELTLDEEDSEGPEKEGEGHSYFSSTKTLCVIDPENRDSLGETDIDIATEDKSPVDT

As for `N=C(N)NCCCCC(=O)Nc1cc(C(F)(F)F)cc(NC(=O)c2cc(C(=O)Nc3cc(C(F)(F)F)cc(NC(=O)CCCCNC(=N)N)c3O[C@@H]3CCNC3)ncn2)c1O[C@@H]1CCNC1` [PMX-30063, N^4,N^6-bis(2-((R)-pyrrolidin-3-yloxy)-3-((4-carbamoylbutyl)guanidine)-5-(trifluoromethyl)phenyl)pyrimidine-4,6-dicarboxamide tetrahydrochloride salt], in data set [1], the 50% inhibitory concentration (IC50) was 702 nM. Also, the half-maximal inhibitory concentration (IC50) in data set [2] was ~3000 nM and 3000 nM. For the same compound, in data set [3] (Balb/c, mouse, IV 5 mg/kg), the AUC(0-inf) came to 97800 ng·h/mL, the AUC(0-t) worked out at 97700 ng·h/mL, the time to peak (Tmax) amounted to 0.083 h and the clearance was 0.852 mL/min/kg. Further, in data set [3] (Balb/c, mouse, IV 5 mg/kg), the half-life is 2.76 h and the Cmax is 48400 ng/mL. Moreover, in data set [3] (Balb/c, mouse, IV 5 mg/kg, read-out: Vz), the Vd turned out to be 0.204 L/kg. Also, in data set [3] (Balb/c, mouse, PO 10 mg/kg), the area under the curve AUC(0-inf) turned out to be 113 ng·h/mL, the AUC(0-t) was found to be 111 ng·h/mL, the time to peak (Tmax) amounted to 2 h and the half-life is 1.26 h. In addition, the Cmax in data set [3] (Balb/c, mouse, PO 10 mg/kg) was found to be 33.7 ± 8.56 ng/mL. The “MRT(0-∞)” value in data set [3] (IV 5 mg/kg) is listed as 2.86 H. For the same compound, in data set [3] (PO 10 mg/kg vs IV 5 mg/kg), the “F*” value is recorded as 0.0579%. For the same compound, in data set [3] (PO 10 mg/kg), the “MRT(0-∞)” value worked out at 2.68 H. Moreover, the “effect on LPS-induced TNF-α production (in words)” value in data set [4] (NR8383, 45 min pretreatment, 1 μg/ml LPS 8 h) is listed as “inhibited”. The inhibition at 0.5 µM in data set [4] (Rattus norvegicus, Macrophage, 8 h) was roughly 50%. Further, in data set [4] (Rattus norvegicus, Macrophage, NR8383 cells, ELISA, 45 min pretreatment, 8-hour LPS, read-out: IC50, inhibition of LPS-induced TNF-α release), the IC50 came to 442 nM.
